Data set [1] relates to HT-29. As to the kind of experiment: Cytotoxicity against human HT-29 cells after 72 hrs by MTT assay. It is filed as functional. The conditions noted are these: HT-29, 72 h. In general terms: Tetrazolium dyes change colour on reduction, which living cells bring about.
Data set [2] relates to SW480. Put plainly: Cytotoxicity against human SW480 cells after 72 hrs by MTT assay. It is filed as functional. The conditions noted are these: SW480, 72 h.
Data set [3] concerns MCF7. As to the kind of experiment: Cytotoxicity against human MCF7 cells after 72 hrs by MTT assay. The following applies: MCF7, 72 h. It is filed as functional.
In data set [4] the test system is A2780. Put plainly: Cytotoxicity against human A2780 cells after 72 hrs by MTT assay. Type of data set: functional. The following applies: A2780, 72 h.
Data set [5] relates to NCI-H460. As to the kind of experiment: Cytotoxicity against human H460 cells after 72 hrs by MTT assay. Type of data set: functional. The following applies: NCI-H460, 72 h.
Data set [6] has as its system A-431. Put plainly: Cytotoxicity against human A431 cells after 72 hrs by MTT assay. It is filed as functional. The conditions noted are these: A-431, 72 h.
The test system of data set [7] is DU-145. Put plainly: Cytotoxicity against human DU145 cells after 72 hrs by MTT assay. It is filed as functional. The conditions noted are these: DU-145, 72 h.
Data set [8] is described as follows: Cytotoxicity against human BE(2)-C cells after 72 hrs by MTT assay. It is filed as functional.
A short description of data set [9]: Cytotoxicity against human SJ-G2 cells after 72 hrs by MTT assay. Type of data set: functional. The conditions noted are these: SJ-G2, 72 h.
Data set [10] in a line: Inhibition of rabbit skeletal muscle protein phosphatase 1 assessed as free phosphate ion release after 60 mins by malachite green method. Also on record: species or system Oryctolagus cuniculus.
The nature of data set [11]: Inhibition of human red blood cells protein phosphatase 2A assessed as free phosphate ion release after 60 mins by malachite green method.
Data set [12] is described as follows: Solubility of the compound. Type of data set: physicochemical.
Data set [13] relates to HT-29. As to the kind of experiment: Cytotoxicity against human HT-29 cells at 100 uM after 72 hrs by MTT assay. It is filed as functional. The following applies: HT-29, 72 h.
Data set [14] relates to SW480. Put plainly: Cytotoxicity against human SW480 cells at 100 uM after 72 hrs by MTT assay. The conditions noted are these: SW480, 72 h. It is filed as functional.
Data set [15] relates to MCF7. Put plainly: Cytotoxicity against human MCF7 cells at 100 uM after 72 hrs by MTT assay. It is filed as functional. The following applies: MCF7, 72 h.
The test system of data set [16] is A2780. As to the kind of experiment: Cytotoxicity against human A2780 cells at 100 uM after 72 hrs by MTT assay. It is filed as functional. The conditions noted are these: A2780, 72 h.
Data set [17] relates to NCI-H460. Put plainly: Cytotoxicity against human H460 cells at 100 uM after 72 hrs by MTT assay. Type of data set: functional. The following applies: NCI-H460, 72 h.
Data set [18] concerns A-431. Put plainly: Cytotoxicity against human A431 cells at 100 uM after 72 hrs by MTT assay. It is filed as functional. The conditions noted are these: A-431, 72 h.
Data set [19] has as its system DU-145. As to the kind of experiment: Cytotoxicity against human DU145 cells at 100 uM after 72 hrs by MTT assay. The conditions noted are these: DU-145, 72 h. It is filed as functional.
A short description of data set [20]: Cytotoxicity against human BE(2)-C cells at 100 uM after 72 hrs by MTT assay. It is filed as functional.
Data set [21] is described as follows: Cytotoxicity against human SJ-G2 cells at 100 uM after 72 hrs by MTT assay. It is filed as functional. The conditions noted are these: SJ-G2, 72 h.

In general, GI50 refers to the concentration giving 50% growth inhibition. One may read the IC50 as the midpoint of a concentration-inhibition curve. For orientation: inhibition means the percentage by which the read-out fell short of the control. Low values mean a response near the control, high ones a response far below the control.

With `C[C@@]12C(=O)OC(=O)[C@]1(C)[C@H]1CC[C@@H]2O1` [CANTHARIDIN], the GI50 was 3.2 µM in data set [1]; 4.5 µM in [2]; 7.5 µM in data set [3]; 4.4 µM in data set [4]; 3.3 µM in [5]; 2.9 µM in data set [6]. The GI50 is 2.1 µM in [7], 3.7 µM in [8] and 1.7 µM in data set [9]. For the same compound, the half-maximal inhibitory concentration (IC50) in data set [10] was found to be 6 µM; in data set [11] it was 0.9 µM.
As to `O=C1[C@H]2CNC[C@H]2C(=O)N1N1CCOCC1`, in [12], the solubility result is reported as “Insoluble”.
In the case of `O=C1OC(=O)[C@@H]2CSC[C@H]12`, the solubility entry in data set [12] was “Insoluble”. Further, the IC50 in data set [10] and in data set [11] was above 100 µM in each case.
As to `CN(C)CCNC(=O)[C@@H]1CNC[C@@H]1C(=O)O`, in [12], the solubility entry is listed as “Insoluble”.
The same measure, in the same setting: next, `CCCN1C(=O)[C@H]2CNC[C@H]2C1=O`: “Insoluble”.
Regarding `O=C1OC(=O)C2C3CCC(O3)C12` (stereo unspecified), the 50% growth inhibitory concentration (GI50) was determined as 57 µM in data set [1]; 44 µM in data set [2]; 68 µM in data set [3]; 38 µM in data set [4]; 45 µM in data set [5]; 31 µM in data set [6]. The results for the GI50 in [7], in [8] and in [9] were 28 µM, 43 µM and 23 µM, respectively. For the same compound, the figures for the IC50 in [10] and in data set [11] were 7.7 µM and 2.7 µM, respectively.
As for `NCC[C@@H](C(=O)O)N1C(=O)[C@H]2CNC[C@H]2C1=O`, the inhibition at 100 µM in [13], in [14], in [15], in data set [16], in [17] and in data set [18] was below 10% throughout. Further, the inhibition at 100 µM in [19], in [20] and in [21] was below 10% each time.
As to `NCCCC[C@@H](C(=O)O)N1C(=O)[C@H]2CSC[C@H]2C1=O`, the inhibition at 100 µM in data set [13] was 22%; in data set [14], below 10%; in data set [15], 30%; in [16], 16%; in [17], 19%; in [18], 19%. Moreover, the inhibition at 100 µM in data set [19] is below 10%; in data set [20], 22%; in data set [21], 10%.

Source of the values: ChEMBL document CHEMBL1157873, “Synthesis and biological activity of Delta-5,6-norcantharimides: importance of the 5,6-bridge” (Eur J Med Chem, 2010).
